Measured values from patent US5030449A, “Synthetic vaccine against AIDS virus” (The United States of America as represented by the …, priority 1988, dated 1991).

System: HIV envelope-immune murine T cells (lymph node cells of gp160-immunized mice)
Test: Lymph node T-cell proliferation assay ([3H]thymidine incorporation, stimulation index)
Format: cell-based, mouse
Conditions: for S.I. (stimulation index, experimental cpm/control cpm): peptide 2 μM
Description: B10.BR/SgSn (H-2^k) and B10.D2/nSn (H-2^d) mice were obtained from the Jackson Laboratories (Bar Harbor, Me.). B10.S(9R)/Sg (H-2^t4) and B10.A(5R)/SgSn (H-2^i5) mice were bred at the NIH breeding colony from breeding pairs obtained from D. J. Stimpfling (Great Falls, Mont.) and from Jackson Laboratories. Mice from the strain B10.S(9R) and B10.A(5R) were chosen because both I-A and I-E molecules of the H-2^s and H-2^b haplotypes are expressed in these recombinant strains, whereas I-E is not expressed in nonrecombinant H-2^b and H-2^s mice.
Mice were immunized s.c. with 10-30 ug of recombinant gp160 1:1 in complete Freund's adjuvant (CFA) at the base of the tail. (The dose was determined according to the purity of the gp160 preparation.) Eight to ten days later, periaortic and inguinal lymph nodes were removed and prepared in a single-cell suspension in complete T-cell medium in accordance with the method of Berkower et al, 1984, J. Immunol., 132:1370. Lymph node cells at 4×10^5 cells per well were added to each well of flat-bottomed 96-well microtiter plates (Costar, Cambridge, Mass.). The 44 peptides were added to the wells to make a final volume of 0.2 ml of medium, and each peptide was tested in triplicate. On the fourth day of culture, 1 uCi of [^3 H]thymidine (6.7 Ci/mmol; New England Nuclear, Boston, Mass.) was added to each well. Eighteen hours later, […] incorporation into DNA, as a measure of proliferation, was determined using liquid scintillation counting. The stimulation index represents a ratio of experimental counts over background counts without antigen.
Mice of the H-2^k, H-2^d, H-^i5, and H-2^t4 haplotypes were immunized s.c. in the tail with recombinant gp160 in CFA at a dose of 20-30 ug per mouse. Eight to ten days later the mice were sacrificed, the periaortic and inguinal lymph nodes were isolated, and proliferation of lymph node cells in the presence or absence of antigen was determined as described herein supra.

## WDQSLKPCVKLTPLCV [HP-8, residues 119-134 of HIV envelope]
B10.A(5R) H-2^i5 mice
  S.I. (stimulation index, experimental cpm/control cpm): 1.51
B10.BR H-2^k mice
  S.I. (stimulation index, experimental cpm/control cpm): 2.24
B10.D2 H-2^d mice
  S.I. (stimulation index, experimental cpm/control cpm): 1.68
B10.S(9R) H-2^t4 mice
  S.I. (stimulation index, experimental cpm/control cpm): 1.23
H-2^k mice, initial screening
  T-cell proliferative response (in words): diminishing response
